Test [1] addresses T1, Urokinase plasminogen activator surface receptor (Homo sapiens, UniProt Q03405). Briefly: Binding affinity to uPAR (unknown origin) assessed as reduction in uPA-uPAR protein interaction.
In test [2] the target is T1, Urokinase plasminogen activator surface receptor. Briefly: Binding affinity to uPAR (unknown origin).
Test [3] is described as follows: Antiproliferative activity against breast cancer cells (unknown origin). It counts as functional, cell-based. As to conditions: Cancer cell lines.
For the next test, the target named is Neuropilin-1 (Homo sapiens, UniProt O14786). As to the kind of experiment: Binding affinity to NRP1 (unknown origin) assessed as reduction in […]VEGFA (165) protein interaction.
Chain of Neuropilin-1 (O14786 whole entry): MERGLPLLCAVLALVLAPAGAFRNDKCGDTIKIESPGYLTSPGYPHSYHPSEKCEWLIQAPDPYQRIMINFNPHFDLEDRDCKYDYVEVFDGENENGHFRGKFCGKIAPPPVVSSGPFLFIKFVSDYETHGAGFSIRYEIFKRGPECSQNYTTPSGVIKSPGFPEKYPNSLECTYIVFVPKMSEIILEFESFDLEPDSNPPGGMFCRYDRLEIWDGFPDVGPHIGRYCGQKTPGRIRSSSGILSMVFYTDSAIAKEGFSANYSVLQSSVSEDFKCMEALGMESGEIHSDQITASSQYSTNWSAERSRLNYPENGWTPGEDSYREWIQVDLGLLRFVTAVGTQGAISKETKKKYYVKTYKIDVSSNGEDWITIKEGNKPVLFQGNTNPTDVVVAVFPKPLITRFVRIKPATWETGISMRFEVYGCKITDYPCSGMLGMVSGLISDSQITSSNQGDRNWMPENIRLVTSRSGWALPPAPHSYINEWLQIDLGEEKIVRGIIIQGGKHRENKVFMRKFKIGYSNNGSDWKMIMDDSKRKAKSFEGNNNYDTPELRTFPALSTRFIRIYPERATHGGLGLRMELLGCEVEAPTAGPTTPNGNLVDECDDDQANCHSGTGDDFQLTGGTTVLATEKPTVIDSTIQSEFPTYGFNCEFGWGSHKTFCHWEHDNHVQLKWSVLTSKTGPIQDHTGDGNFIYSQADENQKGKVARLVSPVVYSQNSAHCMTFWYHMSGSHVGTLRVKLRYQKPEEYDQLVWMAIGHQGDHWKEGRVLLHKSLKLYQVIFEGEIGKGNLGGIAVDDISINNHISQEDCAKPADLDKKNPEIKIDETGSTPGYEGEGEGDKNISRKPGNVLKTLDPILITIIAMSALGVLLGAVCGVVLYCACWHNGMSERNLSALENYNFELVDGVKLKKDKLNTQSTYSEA
For test [4], the target named is Tumour suppressor p53/oncoprotein Mdm2 (Homo sapiens, UniProt P04637+Q00987). Briefly: Inhibition of MDM2/p53 (unknown origin) interaction by fluorescence polarization assay. It counts as protein assay.
Chain of Tumour suppressor p53/oncoprotein Mdm2 (P04637 whole entry): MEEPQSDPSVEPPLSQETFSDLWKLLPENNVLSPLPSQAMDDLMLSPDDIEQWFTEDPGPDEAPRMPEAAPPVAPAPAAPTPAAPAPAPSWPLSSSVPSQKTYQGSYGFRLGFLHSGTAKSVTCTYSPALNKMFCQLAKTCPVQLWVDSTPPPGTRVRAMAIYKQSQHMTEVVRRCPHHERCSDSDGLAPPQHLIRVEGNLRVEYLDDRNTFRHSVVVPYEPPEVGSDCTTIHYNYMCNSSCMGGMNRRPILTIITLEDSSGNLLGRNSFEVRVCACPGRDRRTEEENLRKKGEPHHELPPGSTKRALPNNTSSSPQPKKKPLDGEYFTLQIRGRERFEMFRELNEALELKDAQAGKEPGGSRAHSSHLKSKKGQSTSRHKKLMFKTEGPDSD
Chain of Tumour suppressor p53/oncoprotein Mdm2 (Q00987 whole entry): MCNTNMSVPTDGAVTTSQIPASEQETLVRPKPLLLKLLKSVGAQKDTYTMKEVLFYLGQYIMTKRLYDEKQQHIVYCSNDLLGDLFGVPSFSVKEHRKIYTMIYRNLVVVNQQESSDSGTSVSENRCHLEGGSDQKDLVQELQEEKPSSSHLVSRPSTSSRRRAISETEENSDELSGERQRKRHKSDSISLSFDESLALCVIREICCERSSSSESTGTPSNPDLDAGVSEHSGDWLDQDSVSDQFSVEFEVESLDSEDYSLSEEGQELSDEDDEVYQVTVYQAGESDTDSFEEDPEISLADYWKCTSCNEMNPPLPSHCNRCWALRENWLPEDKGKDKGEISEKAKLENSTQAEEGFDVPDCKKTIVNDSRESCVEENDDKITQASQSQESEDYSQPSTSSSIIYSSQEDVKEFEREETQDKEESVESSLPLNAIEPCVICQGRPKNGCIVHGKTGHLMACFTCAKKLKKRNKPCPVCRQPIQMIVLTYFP
Another test concerns the target Keap1/Nrf2 (Homo sapiens, UniProt Q14145+Q16236). Briefly: Inhibition of Nrf2/Keap1 (unknown origin) protein interaction by fluorescence anisotropy method. It counts as protein assay.
Test [5] is described as follows: Inhibition of HIV1 gp41. Details: species or system Human immunodeficiency virus 1.
For test [6], the target named is Tumour suppressor protein p53/Mdm4 (Homo sapiens, UniProt O15151+P04637). Briefly: Inhibition of MDMX/p53 (unknown origin) interaction. It counts as protein assay.
Chain of Tumour suppressor protein p53/Mdm4 (P04637 whole entry): as the sequence (P04637 whole entry) above
Chain of Tumour suppressor protein p53/Mdm4 (O15151 whole entry): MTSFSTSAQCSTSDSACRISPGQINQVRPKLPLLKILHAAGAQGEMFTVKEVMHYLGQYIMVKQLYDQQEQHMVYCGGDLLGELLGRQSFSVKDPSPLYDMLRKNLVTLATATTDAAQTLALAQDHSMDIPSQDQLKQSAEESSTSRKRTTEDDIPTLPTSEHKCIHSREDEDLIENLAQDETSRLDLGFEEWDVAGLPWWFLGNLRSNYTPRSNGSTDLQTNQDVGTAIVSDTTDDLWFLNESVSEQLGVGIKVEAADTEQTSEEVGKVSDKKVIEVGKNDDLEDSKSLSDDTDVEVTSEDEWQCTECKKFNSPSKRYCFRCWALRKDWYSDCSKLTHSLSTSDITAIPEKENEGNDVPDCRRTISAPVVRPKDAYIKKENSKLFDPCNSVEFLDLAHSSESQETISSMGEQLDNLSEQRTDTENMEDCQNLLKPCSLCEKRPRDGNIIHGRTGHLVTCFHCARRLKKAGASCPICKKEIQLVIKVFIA
The next test relates to MCF7. As to the kind of experiment: Cytotoxicity against human MCF7 cells. It counts as functional, cell-based.
The nature of test [7]: Binding affinity to IFNalpha (unknown origin) assessed as reduction in IFNalpha/IFNAR2 interaction. Set-up: species or system Homo sapiens.
The target of the next test is T2, Alpha-crystallin B chain (Homo sapiens, UniProt P02511).
T2 sequence (P02511 whole entry): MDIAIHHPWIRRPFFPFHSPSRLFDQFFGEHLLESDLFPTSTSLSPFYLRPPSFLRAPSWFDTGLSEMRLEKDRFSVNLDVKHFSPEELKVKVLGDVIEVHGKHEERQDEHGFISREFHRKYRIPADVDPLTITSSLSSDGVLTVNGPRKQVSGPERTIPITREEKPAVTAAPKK
Briefly: Binding affinity to CRYAB (unknown origin) assessed as reduction in CRYAB-VEGFA protein interaction.

For another test, the target named is Annexin A2/S100-A10 (Homo sapiens, UniProt P07355+P60903). Briefly: Inhibition of Annexin A2/Protein S100-A10 (unknown origin) protein interaction by competitive fluorescent binding assay.
Chain of Annexin A2/S100-A10 (P07355 whole entry): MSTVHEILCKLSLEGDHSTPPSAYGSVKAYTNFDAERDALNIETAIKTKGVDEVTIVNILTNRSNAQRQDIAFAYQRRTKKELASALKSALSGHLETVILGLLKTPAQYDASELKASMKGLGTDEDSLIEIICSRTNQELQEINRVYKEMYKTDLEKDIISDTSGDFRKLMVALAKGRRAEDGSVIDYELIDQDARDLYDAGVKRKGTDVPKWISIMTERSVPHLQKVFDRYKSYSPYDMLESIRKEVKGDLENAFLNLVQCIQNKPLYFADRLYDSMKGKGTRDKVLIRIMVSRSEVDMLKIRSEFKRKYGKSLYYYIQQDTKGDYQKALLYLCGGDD
Chain of Annexin A2/S100-A10 (P60903 whole entry): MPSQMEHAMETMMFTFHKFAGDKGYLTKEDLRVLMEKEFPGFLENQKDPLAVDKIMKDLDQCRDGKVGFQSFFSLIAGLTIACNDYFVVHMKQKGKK

T1 sequence (Q03405 whole entry): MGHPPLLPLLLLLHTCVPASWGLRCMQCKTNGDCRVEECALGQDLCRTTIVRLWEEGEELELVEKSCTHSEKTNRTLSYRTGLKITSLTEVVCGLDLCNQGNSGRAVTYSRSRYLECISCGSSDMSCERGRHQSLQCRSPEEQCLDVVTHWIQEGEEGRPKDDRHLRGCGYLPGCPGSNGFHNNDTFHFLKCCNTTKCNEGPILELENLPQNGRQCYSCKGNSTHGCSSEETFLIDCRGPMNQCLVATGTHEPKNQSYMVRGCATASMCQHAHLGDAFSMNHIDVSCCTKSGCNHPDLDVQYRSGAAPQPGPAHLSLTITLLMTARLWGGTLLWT
Chain of Keap1/Nrf2 (Q16236 whole entry): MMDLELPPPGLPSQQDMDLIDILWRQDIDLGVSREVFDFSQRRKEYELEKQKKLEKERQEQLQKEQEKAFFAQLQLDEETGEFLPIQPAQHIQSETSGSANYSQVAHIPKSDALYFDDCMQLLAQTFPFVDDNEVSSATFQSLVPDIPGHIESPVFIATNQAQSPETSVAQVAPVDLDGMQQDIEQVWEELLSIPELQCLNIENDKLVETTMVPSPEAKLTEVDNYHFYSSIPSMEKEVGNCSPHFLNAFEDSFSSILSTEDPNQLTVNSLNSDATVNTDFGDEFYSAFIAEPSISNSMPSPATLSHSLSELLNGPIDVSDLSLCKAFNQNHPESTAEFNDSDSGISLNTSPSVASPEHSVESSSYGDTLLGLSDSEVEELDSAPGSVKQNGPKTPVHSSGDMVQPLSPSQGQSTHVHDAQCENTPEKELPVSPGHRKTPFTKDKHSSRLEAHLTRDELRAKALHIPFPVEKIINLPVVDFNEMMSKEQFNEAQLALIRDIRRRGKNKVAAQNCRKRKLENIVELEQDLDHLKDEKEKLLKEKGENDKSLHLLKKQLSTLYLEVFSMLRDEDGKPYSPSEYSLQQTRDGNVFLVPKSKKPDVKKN
Chain of Keap1/Nrf2 (Q14145 whole entry): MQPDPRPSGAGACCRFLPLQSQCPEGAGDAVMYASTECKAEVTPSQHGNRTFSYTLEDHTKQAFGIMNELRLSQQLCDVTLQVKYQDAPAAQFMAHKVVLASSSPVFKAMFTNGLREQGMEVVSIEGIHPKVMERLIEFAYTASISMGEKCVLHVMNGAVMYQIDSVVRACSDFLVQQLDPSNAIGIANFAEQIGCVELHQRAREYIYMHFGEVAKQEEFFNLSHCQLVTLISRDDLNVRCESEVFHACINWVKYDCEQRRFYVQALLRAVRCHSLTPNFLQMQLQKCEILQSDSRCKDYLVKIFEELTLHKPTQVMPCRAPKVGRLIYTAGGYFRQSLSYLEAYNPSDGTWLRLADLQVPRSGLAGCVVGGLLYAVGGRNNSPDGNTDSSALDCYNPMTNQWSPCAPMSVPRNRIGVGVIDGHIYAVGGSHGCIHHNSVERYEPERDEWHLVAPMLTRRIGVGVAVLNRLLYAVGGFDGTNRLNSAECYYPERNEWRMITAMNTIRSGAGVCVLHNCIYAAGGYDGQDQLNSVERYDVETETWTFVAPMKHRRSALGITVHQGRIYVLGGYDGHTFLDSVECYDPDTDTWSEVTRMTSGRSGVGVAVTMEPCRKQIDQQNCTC

On to `C[C@H]1C[C@H](C)CN(c2cc(Nc3ccccc3C(=O)O)c3c4c(onc24)-c2ccccc2C3=O)C1`, for which, in test [1], the IC50 came to 10 µM. The molecule further came in with a Kd in [2] of 0.31 µM.

As for `O=C(NC(=S)Nc1cccc(-c2nc3ccccc3[nH]2)c1)c1ccc2c(c1)OCCO2`, the half-maximal inhibitory concentration (IC50) in [3] amounted to 0.2 µM; on Neuropilin-1, 9.3 µM.

For `O=C(O)c1ccccc1/N=N/C(=N\Nc1cc(S(=O)(=O)O)ccc1O)c1ccccc1`, the Ki in [4] came to 0.18 µM.

`CCC(CC)c1ccc(S(=O)(=O)Nc2cc(Sc3nc[nH]n3)c(O)c3ccccc23)cc1`: at Keap1/Nrf2, binding was characterised by a dissociation constant (Kd) of 2.9 µM.

On to `CC(C)C[C@H](NC(=O)c1ccc(NC(=O)[C@@H](N)Cc2c[nH]c3ccccc23)c(OCCc2c[nH]c3ccccc23)c1)C(=O)O`, for which, in test [5], the affinity corresponds to a Ki of 1.5 µM.

The molecule `C[C@H](CCC(=O)O)[C@H]1CC[C@H]2[C@@H]3CC[C@@H]4C[C@H](O)CC[C@]4(C)[C@H]3CC[C@]12C` [LITHOCHOLIC ACID] yielded a Kd in test [6] of 15 µM.

On to `COC(=O)[C@@H](CCCCNC(=O)OC(C)(C)C)NC(=O)CI`, for which the EC50 in the test with MCF7 was 0.64 µM.

Consider `CNCc1ccccc1Cc1cccc2ccccc12`, for which the 50% inhibitory concentration (IC50) in test [7] is 4 µM.

`CC(CC(=O)O)C(N)C(=O)O` (configuration not stated): the IC50 at Alpha-crystallin B chain was found to be 20 µM.

For the molecule `Cc1ccccc1OCc1nnc(SCC(N)=O)[nH]1`, the IC50 at Annexin A2/S100-A10 came out at 24 µM.

The values are drawn from ChEMBL document CHEMBL3621082, “Rational design of proteinprotein interaction inhibitors” (Medchemcomm, 2015).
